Assay results reported in US20220162200A1, “PKM2 MODULATORS AND METHODS FOR THEIR USE” (Sumitomo Dainippon Pharma Oncology, Inc., priority 2019, published 2022).

How the values were obtained:
PKM2 = PKM2 (Homo sapiens, UniProt P14618); experiment: PKM2 activation assay (ATP formation measured by Kinase Glo); assay type: biochemical; details: 2 nM PKM2, 30 min pre-incubation, 75 μM ADP, 15 μM PEP, ATP formation after 30 min
Method: Compounds were pre-incubated with 2 nM PKM2 in reaction buffer (50 mM Tris-HCl, pH 8.0, 200 mM KCl, 30 mM MgCl2, 2 mM Dithiothreitol (DTT), 5% Dimethyl sulfoxide (DMSO)) for 30 min at ambient temperature. Adenosine diphosphate (ADP) and Phosphoenolpyruvic acid (PEP) were then added to final concentrations of 75 μM and 15 μM, respectively. After 30 min, Adenosine triphosphate (ATP) formation was measured by Kinase Glo (Promega, Madison, Wis.), and AC50 values were determined using Prism (GraphPad Software, Inc., La Jolla, Calif.).

A549 cells = experiment: A549 cell viability by ATPlite assay; assay type: cell-based; details: Homo sapiens, A549 cells in BME media lacking nonessential amino acids + 5% dialyzed serum, 72 hours
Method: A549 cells were seeded at 5000 cells per well (in 96-well plate) in Basal Medium Eagle (BME) media lacking nonessential amino acids+5% dialyzed serum. After 18 hours, a negative control (i.e., DMSO only) or a representative compound in 0.1% final concentration DMSO was added. After 72 hours, cell viability was determined by ATPlite assay and EC50 values were determined using Prism GraphPad Software (La Jolla, Calif.).

Chain of PKM2 (P14618 whole entry): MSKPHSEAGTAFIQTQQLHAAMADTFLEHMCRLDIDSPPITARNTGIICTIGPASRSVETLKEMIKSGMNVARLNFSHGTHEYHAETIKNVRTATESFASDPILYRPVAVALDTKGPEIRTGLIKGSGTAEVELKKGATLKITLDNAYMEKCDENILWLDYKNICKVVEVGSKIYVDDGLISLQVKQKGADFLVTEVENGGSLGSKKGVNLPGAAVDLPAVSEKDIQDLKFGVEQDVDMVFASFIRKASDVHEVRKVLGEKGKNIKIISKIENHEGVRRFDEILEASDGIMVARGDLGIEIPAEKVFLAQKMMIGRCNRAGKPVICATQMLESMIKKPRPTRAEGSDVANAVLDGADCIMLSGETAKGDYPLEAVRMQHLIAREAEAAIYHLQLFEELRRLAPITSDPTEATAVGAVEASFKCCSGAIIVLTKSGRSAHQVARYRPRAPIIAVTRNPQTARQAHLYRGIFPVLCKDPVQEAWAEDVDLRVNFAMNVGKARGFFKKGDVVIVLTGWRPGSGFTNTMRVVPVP

AC50 (PKM2) [nM] | EC50 (A549 cells) [nM] | SMILES
15 to 50 | > 100 | O=C(c1cc(C(F)(F)F)n[nH]1)N(CCC1CCS(=O)(=O)CC1)Cc1c(F)cccc1Br [Compound Ib, N-(2-bromo-6-fluorobenzyl)-N-(2-(1,1-dioxidotetrahydro-2H-thiopyran-4-yl)ethyl)-3-(trifluoromethyl)-1H-pyrazole-5-carboxamide]
< 15 |  | O=C(c1cc(C(F)(F)F)n[nH]1)N(CCC1CCS(=O)(=O)CC1)Cc1c(F)ccc2c(Cl)c[nH]c12 [Compound Ie, N-(2-(1,1-dioxidotetrahydro-2H-thiopyran-4-yl)ethyl)-N-((3-chloro-6-fluoro-1H-indol-7-yl)methyl)-3-(trifluoromethyl)-1H-pyrazole-5-carboxamide]
> 50 |  | O=C(c1cc(C(F)(F)F)n[nH]1)N(CCC1CCS(=O)(=O)CC1)Cc1c(F)cccc1Cl [Compound Ij, N-(2-chloro-6-fluorobenzyl)-N-(2-(1,1-dioxidotetrahydro-2H-thiopyran-4-yl)ethyl)-3-(trifluoromethyl)-1H-pyrazole-5-carboxamide]
> 50 | 50 to 100 | Nc1ccccc1CN(CCC1CCS(=O)(=O)CC1)C(=O)c1cc(C(F)(F)F)n[nH]1 [Compound Ii, N-(2-aminobenzyl)-N-(2-(1,1-dioxidotetrahydro-2H-thiopyran-4-yl)ethyl)-3-(trifluoromethyl)-1H-pyrazole-5-carboxamide]
> 50 |  | Nc1cccc(Br)c1CN(CCC1CCS(=O)(=O)CC1)C(=O)c1cc(C(F)(F)F)n[nH]1 [Compound Ih, N-(2-amino-6-bromobenzyl)-N-(2-(1,1-dioxidotetrahydro-2H-thiopyran-4-yl)ethyl)-3-(trifluoromethyl)-1H-pyrazole-5-carboxamide]
< 15 |  | Nc1cccc(Cl)c1CN(CCC1CCS(=O)(=O)CC1)C(=O)c1cc(C(F)(F)F)n[nH]1 [Compound Ia, N-(2-amino-6-chlorobenzyl)-N-(2-(1,1-dioxidotetrahydro-2H-thiopyran-4-yl)ethyl)-3-(trifluoromethyl)-1H-pyrazole-5-carboxamide]
< 15 |  | O=C(c1cc(C(F)(F)F)n[nH]1)N(CCC1CCS(=O)(=O)CC1)Cc1c(F)ccc2cc[nH]c12 [Compound Id, N-(2-(1,1-dioxidotetrahydro-2H-thiopyran-4-yl)ethyl)-N-((6-fluoro-1H-indol-7-yl)methyl)-3-(trifluoromethyl)-1H-pyrazole-5-carboxamide]
15 to 50 | 50 to 100 | Cc1ccc(F)c(CN(CCC2CCS(=O)(=O)CC2)C(=O)c2cc(C(F)(F)F)n[nH]2)c1 [Compound Ic, N-(2-(1,1-dioxidotetrahydro-2H-thiopyran-4-yl)ethyl)-N-(2-fluoro-5-methylbenzyl)-3-(trifluoromethyl)-1H-pyrazole-5-carboxamide]
15 to 50 | > 100 | O=C(c1cc(C(F)(F)F)n[nH]1)N(CCC1CCS(=O)(=O)CC1)Cc1c(F)ccc2cn[nH]c12 [Compound Ig, N-(2-(1,1-dioxidotetrahydro-2H-thiopyran-4-yl)ethyl)-N-((6-fluoro-1H-indazol-7-yl)methyl)-3-(trifluoromethyl)-1H-pyrazole-5-carboxamide]
15 to 50 | > 100 | NCc1ccc(F)c(CN(CCC2CCS(=O)(=O)CC2)C(=O)c2cc(C(F)(F)F)n[nH]2)c1 [Compound If, N-(2-(1,1-dioxidotetrahydro-2H-thiopyran-4-yl)ethyl)-N-(2-fluoro-5-aminomethylbenzyl)-3-(trifluoromethyl)-1H-pyrazole-5-carboxamide]
